pEC50, pIC50: −log10 of the molar value. Like-named read-outs stand apart in the source and are kept apart here.
Assays:
[1] = biological target: T1, METTL3-METTL14 (Homo sapiens, UniProt Q86U44); conditions: for LLE (lipophilic ligand efficiency, pIC50-logP): calculated with DataWarrior; for LE (ligand efficiency): from TR-FRET IC50
Target sequence in this assay (Q9HCE5 whole entry): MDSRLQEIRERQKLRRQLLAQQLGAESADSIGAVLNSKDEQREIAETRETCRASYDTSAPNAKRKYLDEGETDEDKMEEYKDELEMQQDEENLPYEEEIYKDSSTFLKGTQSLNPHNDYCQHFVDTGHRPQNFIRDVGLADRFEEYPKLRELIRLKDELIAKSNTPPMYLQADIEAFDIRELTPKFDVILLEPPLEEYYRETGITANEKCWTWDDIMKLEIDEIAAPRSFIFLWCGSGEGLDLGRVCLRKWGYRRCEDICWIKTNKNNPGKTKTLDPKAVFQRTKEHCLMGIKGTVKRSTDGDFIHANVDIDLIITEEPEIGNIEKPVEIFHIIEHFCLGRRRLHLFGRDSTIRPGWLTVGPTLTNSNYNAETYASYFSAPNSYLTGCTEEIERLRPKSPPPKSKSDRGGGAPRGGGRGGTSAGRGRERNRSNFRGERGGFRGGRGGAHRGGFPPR
Target sequence in this assay (Q86U44 whole entry): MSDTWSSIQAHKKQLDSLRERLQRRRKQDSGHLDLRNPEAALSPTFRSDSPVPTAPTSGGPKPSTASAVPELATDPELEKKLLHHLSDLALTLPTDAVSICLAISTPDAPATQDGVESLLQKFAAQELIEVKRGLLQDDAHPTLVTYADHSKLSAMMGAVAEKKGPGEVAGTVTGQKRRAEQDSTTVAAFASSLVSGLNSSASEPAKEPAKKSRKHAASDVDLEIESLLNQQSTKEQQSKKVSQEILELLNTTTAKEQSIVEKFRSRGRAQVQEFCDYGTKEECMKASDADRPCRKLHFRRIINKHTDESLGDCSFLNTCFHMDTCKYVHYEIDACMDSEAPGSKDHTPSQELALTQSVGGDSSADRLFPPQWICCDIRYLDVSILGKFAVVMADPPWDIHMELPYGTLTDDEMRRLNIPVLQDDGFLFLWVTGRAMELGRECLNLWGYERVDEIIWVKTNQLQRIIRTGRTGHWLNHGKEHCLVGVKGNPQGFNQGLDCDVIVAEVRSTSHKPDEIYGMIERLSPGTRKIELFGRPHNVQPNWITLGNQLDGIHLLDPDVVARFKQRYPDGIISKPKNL

[2] = biological target: T1, METTL3-METTL14; experiment: biochemical
Target sequence in this assay (Q9HCE5 whole entry): as the sequence (Q9HCE5 whole entry) above
Target sequence in this assay (Q86U44 whole entry): as the sequence (Q86U44 whole entry) above

[3] = biological target: T1, METTL3-METTL14; experiment: Protein thermal shift assay, METTL3/METTL14; conditions: read-out: ΔTm of METTL3/METTL14
Target sequence in this assay (Q86U44 whole entry): as above
Target sequence in this assay (Q9HCE5 whole entry partner): as the sequence (Q9HCE5 whole entry) above

[4] = Rat liver microsomes
[5] = tested on: m^6A/A ratio in polyadenylated RNA, MOLM-13 cells; experiment: m6A/A ratio in polyadenylated RNA by UPLC-MS/MS, MOLM-13; conditions: Homo sapiens, MOLM-13, 16 h, read-out: EC50 reduction of m^6A/A in polyadenylated RNA
[6] = read-out: IC50 for N6-adenosine-methyltransferase, exemplary PROTAC compounds, Table 9, HTRF, triplicates

Row | Structure (SMILES) | LLE (lipophilic ligand efficiency, pIC50-logP) [1] | pIC50 [1, 6] | other results
1 | CNc1cc(N2CCCC(O)(CNC(=O)c3ccc(CN4CCC(C)(C)CC4)cc3)C2)ncn1 (stereo not shown) [Compound 1] | 2.5 | – | LE (ligand efficiency) [1]: 0.21 kcal.mol^−1 heavy atom count^−1
2 | CC1(C)CCN(Cc2cc(F)c(N3CC(=O)NC4(CCN(c5cc(NCCCNC(=O)CCCCCCCCCCNc6cccc7c6CN(C6CCC(=O)NC6=O)C7=O)ncn5)CC4)C3)cc2F)CC1 (stereo not shown) [Compound 56-1] | – | 6.52 | –
3 | CC1(C)CCN(Cc2ccc(C(=O)NC3CCN(c4cc(NCc5ccccc5)ncn4)CC3)cn2)CC1 [Compound 6] | 1.7 | – | LE (ligand efficiency) [1]: 0.20 kcal.mol^−1 heavy atom count^−1
4 | CC1(C)CCN(Cc2ccc(N3CC(=O)NC4(CCN(c5cc(NCCCNC(=O)CNc6cccc7c6CN(C6CCC(=O)NC6=O)C7=O)ncn5)CC4)C3)cc2)CC1 (stereo not shown) [Compound 15-13] | – | – | pIC50 [2]: 6.28
5 | CNc1cc(N2CCC3(CC2)CN(c2ccc(CN4CCC(C)(C)CC4)cc2)CC(=O)N3)ncn1 [Compound 10, 4-(4-((4,4-dimethylpiperidin-1-yl)methyl)phenyl)-9-(6-(methylamino)pyrimidin-4-yl)-1,4,9-triazaspiro[5.5]undecan-2-one] | – | – | pIC50 ([1]; TR-FRET assay): 7.05
6 | CC1(C)CCN(Cc2cc(F)c(N3CC(=O)NC4(CCN(c5cc(NCCCNC(=O)CCCCCCCCn6cc(CNc7cccc8c7C(=O)N(C7CCC(=O)NC7=O)C8=O)nn6)ncn5)CC4)C3)cc2F)CC1 (stereo not shown) [Compound 58-1] | – | 7.17 | –
7 | CC1(C)CCN(Cc2cc(F)c(N3CC(=O)NC4(CCN(c5cc(NCCCNC(=O)CCCCCCCCCCn6cc(CNc7cccc8c7C(=O)N(C7CCC(=O)NC7=O)C8=O)nn6)ncn5)CC4)C3)cc2F)CC1 (stereo not shown) [Compound 59-1] | – | 6.66 | –
8 | CN(C)c1cc(N2CCC3(CC2)CN(c2ccc(CN4CCC(C)(C)CC4)cc2)CC(=O)N3)ncn1 [Compound 14] | 3.2 | – | LE (ligand efficiency) [1]: 0.23 kcal.mol^−1 heavy atom count^−1
9 | CC1(C)CCN(Cc2ccc(N3CC(=O)NC4(CCN(c5cc(NCCCNC(=O)CCCCCCCCNc6cccc7c6CN(C6CCC(=O)NC6=O)C7=O)ncn5)CC4)C3)cc2)CC1 (stereo not shown) [Compound 14-12] | – | 6.59 | –
10 | CC1(C)CCN(Cc2cc(F)c(N3CC(=O)NC4(CCN(c5cc(NCc6cccc(CNC(=O)CCn7cc(CNc8cccc9c8C(=O)N(C8CCC(=O)NC8=O)C9=O)nn7)c6)ncn5)CC4)C3)cc2F)CC1 (stereo not shown) [Compound 53-1] | – | – | pIC50 [2]: 6.70
11 | CNc1cc(N2CCC3(CC2)CN(c2ccc(CN4CCC(C)(C)CC4)cc2)CC(=O)N3C)ncn1 [Compound 13] | 3.0 | – | pIC50 ([1]; TR-FRET assay): 5.82; LE (ligand efficiency) [1]: 0.22 kcal.mol^−1 heavy atom count^−1
12 | CC1(C)CCN(Cc2cc(F)c(N3CC(=O)NC4(CCN(c5cc(NCc6cccc(CNC(=O)CCCCCCCCNc7cccc8c7CN(C7CCC(=O)NC7=O)C8=O)c6)ncn5)CC4)C3)cc2F)CC1 (stereo not shown) [Compound 50-1] | – | 7.17 | –
13 | CNc1cc(N2CCC3(CC2)CN(c2ccc(CN4CCC(C)(C)CC4)cc2)C(=O)N3)ncn1 [Compound 12] | 2.6 | – | LE (ligand efficiency) [1]: 0.23 kcal.mol^−1 heavy atom count^−1
14 | CC1(C)CCN(Cc2ccc(N3CC(=O)NC4(CCN(c5cc(NCCCNC(=O)CCCCCCCCn6cc(CNc7cccc8c7C(=O)N(C7CCC(=O)NC7=O)C8=O)nn6)ncn5)CC4)C3)cc2)CC1 (stereo not shown) [Compound 57-1] | – | – | pIC50 [2]: 6.32
15 | CC1(C)CCN(Cc2ccc(NCC3(O)CCN(c4cc(NCc5ccccc5)ncn4)CC3)cn2)CC1 [Compound 5] | – | – | pIC50 ([1]; TR-FRET assay): 6.10
16 | CC1(C)CCN(Cc2cc(F)c(N3CC(=O)NC4(CCN(c5cc(NCCCNC(=O)CCCCCCCCNc6cccc7c6CN(C6CCC(=O)NC6=O)C7=O)ncn5)CC4)C3)cc2F)CC1 (stereo not shown) [Compound 55-1] | – | 7.18 | –
17 | Nc1ncnc2c1ncn2[C@@H]1O[C@H](CSCC[C@H](N)C(=O)O)[C@@H](O)[C@H]1O [SAH, S-adenosyl-L-homocysteine, reference compound] | – | – | ΔTm at 100 µM [3]: 2.8 °C

Row | Structure (SMILES) | LLE (lipophilic ligand efficiency, pIC50-logP) [1] | pIC50 [1, 6] | other results
18 | CC1(C)CCN(Cc2cc(F)c(N3CC(=O)NC4(CCN(c5cc(NCc6cccc(CNC(=O)CCCCCCCCn7cc(CNc8cccc9c8C(=O)N(C8CCC(=O)NC8=O)C9=O)nn7)c6)ncn5)CC4)C3)cc2F)CC1 (stereo not shown) [Compound 52-1] | – | 7.06 | –
19 | CC1(C)CCN(Cc2ccc(N3CC(=O)NC4(CCN(c5nc(Cl)nc6[nH]ccc56)CC4)C3)cc2)CC1 [Compound 19, 9-(2-Chloro-7H-pyrrolo[2,3-d]pyrimidin-4-yl)-4-(4-((4,4-dimethylpiperidin-1-yl)methyl)phenyl)-1,4,9-triazaspiro[5.5]undecan-2-one] | 3.9 | – | RLM t1/2 [4]: 32 min
20 | CC1(C)CCN(Cc2ccc(N3CC(=O)NC4(CCN(c5cc(NCCCNC(=O)CCn6cc(CNc7cccc8c7C(=O)N(C7CCC(=O)NC7=O)C8=O)nn6)ncn5)CC4)C3)cc2)CC1 (stereo not shown) [Compound 13-11] | – | – | pIC50 [2]: 5.74
21 | CNc1cc(N2CCC3(CC2)CN(c2cc(F)c(CN4CCC(C)(C)CC4)cc2F)CC(=O)N3)ncn1 [Compound 22, 4-(4-((4,4-Dimethylpiperidin-1-yl)methyl)-2,5-difluorophenyl)-9-(6-(methylamino)pyrimidin-4-yl)-1,4,9-triazaspiro[5.5]undecan-2-one] | – | – | pEC50 [5]: 6.15; ΔTm at 100 µM [3]: 4.7 °C
22 | CNc1cc(N2CCC(O)(CNc3ccc(CN4CCC(C)(C)CC4)cn3)CC2)ncn1 [Compound 3] | 3.2 | – | pIC50 ([1]; TR-FRET assay): 5.34
23 | CC1(C)CCN(Cc2cc(F)c(N3CC(=O)NC4(CCN(c5cc(NCC6CCN(C(=O)CCCCCCCCN7CCN(c8cccc9c8C(=O)N(C8CCC(=O)NC8=O)C9=O)CC7)CC6)ncn5)CC4)C3)cc2F)CC1 (stereo not shown) [Compound 49-1] | – | – | pIC50 [2]: 8.30
24 | CC1(C)CCN(Cc2ccc(N3CC(=O)NC4(CCN(c5ccnc6[nH]ccc56)CC4)C3)cc2)CC1 [Compound 18] | 2.3 | – | LE (ligand efficiency) [1]: 0.20 kcal.mol^−1 heavy atom count^−1
25 | CC1(C)CCN(Cc2ccc(N3CC(=O)NC4(CCN(c5cc(NCCCNC(=O)CCOCCOCCOCCOCCNc6cccc7c6C(=O)N(C6CCC(=O)NC6=O)C7=O)ncn5)CC4)C3)cc2)CC1 (stereo not shown) [Compound 10-6] | – | 6.23 | –
26 | CNc1cc(N2CC3(CN(c4ccc(CN5CCC(C)(C)CC5)cc4)CC(=O)N3)C2)ncn1 [Compound 11, 8-(4-((4,4-Dimethylpiperidin-1-yl)methyl)phenyl)-2-(6-(methylamino)pyrimidin-4-yl)-2,5,8-triazaspiro[3.5]nonan-6-one] | 4.5 | – | RLM t1/2 [4]: 70 min; LE (ligand efficiency) [1]: 0.26 kcal.mol^−1 heavy atom count^−1
27 | CC1(C)CCN(Cc2ccc(N3CC(=O)NC4(CCN(c5cc(NCCCNC(=O)CCOCCOCCOCCNc6cccc7c6C(=O)N(C6CCC(=O)NC6=O)C7=O)ncn5)CC4)C3)cc2)CC1 (stereo not shown) [Compound 9-5] | – | 5.97 | –
28 | CNc1cc(N2CCC(O)(CNc3ccc(CN4CCC(C)(C)CC4)cc3)CC2)ncn1 [Compound 2] | 2.5 | – | pIC50 ([1]; TR-FRET assay): 5.30
29 | CC1(C)CCN(Cc2cc(F)c(N3CC(=O)NC4(CCN(c5cc(NCc6cccc(CNC(=O)CCCCCCCCCCNc7cccc8c7CN(C7CCC(=O)NC7=O)C8=O)c6)ncn5)CC4)C3)cc2F)CC1 (stereo not shown) [Compound 51-1] | – | 6.80 | –
30 | CC(C)Nc1cc(N2CCC3(CC2)CN(c2ccc(CN4CCC(C)(C)CC4)cc2)CC(=O)N3)ncn1 [Compound 15, 4-(4-((4,4-Dimethylpiperidin-1-yl)methyl)phenyl)-9-(6-(isopropylamino)pyrimidin-4-yl)-1,4,9-triazaspiro[5.5]undecan-2-one] | 3.2 | – | LE (ligand efficiency) [1]: 0.24 kcal.mol^−1 heavy atom count^−1
31 | CNc1cc(N2CCC(O)(CNc3ccc(CN4CCC(C)(C)CC4)nc3)CC2)ncn1 [Compound 4] | 3.4 | – | pIC50 ([1]; TR-FRET assay): 5.24
32 | CC1(C)CCN(Cc2ccc(N3CC(=O)NC4(CCN(c5cc(NCCCNC(=O)CCOCCOCCOCCOCCOCCNc6cccc7c6C(=O)N(C6CCC(=O)NC6=O)C7=O)ncn5)CC4)C3)cc2)CC1 (stereo not shown) [Compound 11-7] | – | 6.19 | –
33 | CC1(C)CCN(Cc2ccc(N3CC(=O)NC4(CCN(c5cc(NCCCNC(=O)CCCCCCCCCCCCCCNc6cccc7c6CN(C6CCC(=O)NC6=O)C7=O)ncn5)CC4)C3)cc2)CC1 (stereo not shown) [Compound 54-1] | – | 5.91 | –
34 | CC1(C)CCN(Cc2ccc(N3CC(=O)NC4(CCN(c5cc(NCCCNC(=O)CCOCCOCCNc6cccc7c6C(=O)N(C6CCC(=O)NC6=O)C7=O)ncn5)CC4)C3)cc2)CC1 (stereo not shown) [Compound 8-4] | – | 5.61 | –
